Legend:
[1] = biological target: T1, peptide/HLA-A*0201 complexes (Homo sapiens, UniProt P04439, D140Y/D185E/D98H/E176V/E277Q/G131W/G231S/I119V/I121R/I166T/I218V/L300P/L318F/N151K/N90K/P208A/P217A/Q86G/Q94H/R138H/R169H/T345S); assay: T2 stabilization (stability) assay; type: binding; details: T2 cells, peptide 50 μg/ml, 18 h, then brefeldin A 10 μg/ml 1 h; read at 0, 2, 4, 6 h, 37°C; flow cytometry
T1 construct: endogenous in cells; host or cells: T2 lymphoblastic cell line (TAP-deficient)
Method: For the stability assay, each of the selected peptides (50 μg/ml) was incubated with T2 cells (1 × 10^6 cells/ml) for 18 h in serum-free RPMI 1640 medium supplemented with 3 μg/ml β2-M at 37°C. Thereafter, cells were washed twice and incubated with brefeldin A (10 μg/ml, eBiosciences, USA) for 1 h. Subsequently, the cells were washed and incubated for 0, 2, 4, and 6 h at 37°C. Cells were washed twice, stained with BB7.2 for 0.5 h at 4°C. Finally, cells were collected, washed, and analyzed by flow cytometry. Dissociation complex 50 (DC50) was defined as time (t) required for the loss of 50% of the HLA-A^∗0201/peptide complexes stabilized at 0 h.

[2] = system: HLA-A2.1/K^b transgenic mice; assay: IFN-γ ELISPOT of CTLs induced in HLA-A2.1/Kb transgenic mice; type: in vivo; details: HLA-A2.1/Kb transgenic mice immunized with peptide; stimulators peptide-pulsed T2 cells
Method: In vivo induction of peptide-specific CTLs was performed as previously described. Briefly, peptide (100 μg) and the IA^b-restricted HBV-core128 T helper epitope (140 μg) emulsified in incomplete Freund's adjuvant (IFA) were used to subcutaneously immunize at the base of the tail of HLA-A2.1/K^b transgenic mice three times on days 0, 5, and 10. On day 11, all mice were sacrificed through cervical dislocation. Spleen lymphocytes were isolated and restimulated once with 10 μg/ml peptide and 10 U/ml mIL-2 in vitro for an additional 6 days. LDH and IFN-γ ELISPOT assays were performed on day 6 after in vitro stimulation. E/T ratios used in the LDH assay were 20 : 1, 40 : 1, and 80 : 1.
The ELISPOT assay was performed using a commercial kit (Dakewe, China) according to the procedures previously described. Briefly, T2 cells incubated with/without candidate peptide (50 μg/ml) were used as the stimulating cells, effector cells (1 × 10^5) and stimulator cells (peptide-pulsed T2 cells or T2 cells only, 1 × 10^5) were seeded into the 96-well plate precoated with an anti-human (or anti-mouse) IFN-γ antibody. After incubation at 37°C for 18 h, cells were removed, and plates were processed for analysis as instructed. The spot number was determined automatically using a computer-assisted spot analyzer (Dakewe, China).

Row | DC50: time required for the loss of 50% of the HLA-A*0201/peptide complexes stabilized at 0 h [1] [h] | Sequence | IFN-γ production, ELISPOT, CTLs induced in vivo [2]
1 | >2 | YLIRRIEEL [Peptide P22] | greater production of IFN-γ compared with the other peptides
2 | >6 | TLLNETESL [Peptide P129] | greater production of IFN-γ compared with the other peptides

Source: article PMC6286779, “HLA-A2-Restricted Epitopes Identified from MTA1 Could Elicit Antigen-Specific Cytotoxic T Lymphocyte Response” (Journal of Immunology Research, 2018)
